Source: patent US8969629B2, “Cyclic compound, production process thereof, radiation-sensitive composition and resist pattern formation method” (Mitsubishi Gas Chemical Company, Inc., priority 2009, dated 2015)

Test: Solubility test of compound in safe solvent
Assay type: physicochemical
Conditions: for dissolution amount in CHN: cyclohexanone (CHN); for dissolution amount in PGME: propylene glycol monomethyl ether (PGME)
Text: A: 5.0 wt %≦dissolution amount
B: 3.0 wt %≦dissolution amount<5.0 wt %
C: dissolution amount<3.0 wt %

Compound	dissolution amount in CHN	dissolution amount in PGME
CC1CC(Oc2cc(O)c3cc2C(c2ccc(O)c(O)c2)c2cc(c(O)cc2OC2CC(C)CC(C)(C)C2)C(c2ccc(O)c(O)c2)c2cc(c(OC4CC(C)CC(C)(C)C4)cc2O)C(c2ccc(O)c(O)c2)c2cc(c(O)cc2OC2CC(C)CC(C)(C)C2)C3c2ccc(O)c(O)c2)CC(C)(C)C1 (centres unmarked) [CR-7A]	A (5.0 wt %≦dissolution amount)	A (5.0 wt %≦dissolution amount)
Oc1ccc(C2c3cc(c(OC4CCCCC4)cc3O)C(c3ccc(O)c(O)c3)c3cc(c(O)cc3OC3CCCCC3)C(c3ccc(O)c(O)c3)c3cc(c(OC4CCCCC4)cc3O)C(c3ccc(O)c(O)c3)c3cc2c(O)cc3OC2CCCCC2)cc1O (centres unmarked) [CR-2A]	A (5.0 wt %≦dissolution amount)	A (5.0 wt %≦dissolution amount)
COc1cc(O)c2cc1C(c1ccc(C)cc1C)c1cc(c(O)cc1OC)C(c1ccc(C)cc1C)c1cc(c(OC)cc1O)C(c1ccc(C)cc1C)c1cc(c(O)cc1OC)C2c1ccc(C)cc1C (centres unmarked) [CR-8A, reference compound]	C (dissolution amount<3.0 wt %)	C (dissolution amount<3.0 wt %)
CCOc1cc(O)c2cc1C(c1ccc(OC)cc1)c1cc(c(O)cc1OCC)C(c1ccc(OC)cc1)c1cc(c(OCC)cc1O)C(c1ccc(OC)cc1)c1cc(c(O)cc1OCC)C2c1ccc(OC)cc1 (centres unmarked) [CR-9A, reference compound]	C (dissolution amount<3.0 wt %)	C (dissolution amount<3.0 wt %)

Continued, values first:

dissolution amount in CHN	dissolution amount in PGME	Compound
A (5.0 wt %≦dissolution amount)	A (5.0 wt %≦dissolution amount)	Cc1cc(C2c3cc(c(OC4CCC(C)CC4)cc3O)C(c3ccc(O)c(O)c3)c3cc(c(O)cc3OC3CCC(C)CC3)C(c3ccc(O)c(O)c3)c3cc(c(OC4CCC(C)CC4)cc3O)C(c3ccc(O)c(O)c3)c3cc2c(O)cc3OC2CCC(C)CC2)ccc1O (centres unmarked) [CR-4A]
A (5.0 wt %≦dissolution amount)	A (5.0 wt %≦dissolution amount)	Oc1ccc(C2c3cc(c(OC4CCCCC4)cc3O)C(c3ccc(O)cc3)c3cc(c(O)cc3OC3CCCCC3)C(c3ccc(O)cc3)c3cc(c(OC4CCCCC4)cc3O)C(c3ccc(O)cc3)c3cc2c(O)cc3OC2CCCCC2)cc1 (centres unmarked) [CR-1A]
A (5.0 wt %≦dissolution amount)	A (5.0 wt %≦dissolution amount)	CC1CCC(Oc2cc(O)c3cc2C(c2ccc(O)cc2)c2cc(c(O)cc2OC2CCC(C)CC2)C(c2ccc(O)cc2)c2cc(c(OC4CCC(C)CC4)cc2O)C(c2ccc(O)cc2)c2cc(c(O)cc2OC2CCC(C)CC2)C3c2ccc(O)cc2)CC1 (centres unmarked) [CR-3A]
